Test results as given in ChEMBL document CHEMBL3885861, “Open TG-GATES”.

Species: Rattus norvegicus
Assay: Open TG-GATES - Regimen: Single
Type: toxicity, organism-based, Sprague-Dawley
Design: regimen Single, gender Male, age 6 weeks
Conditions: in vivo, po, 0 mg/kg, route gavage, dose level Control; for APTT / Bas / Eos / Fbg / Hb / Ht / Lym / MCH / MCHC / MCV / Mono / Neu / PT / Plat / RBC / Ret / WBC: tissue Blood; for KIDNEY_L / KIDNEY_R / KIDNEY_TOTAL: tissue Kidney; for LIVER: tissue Liver; for A/G / ALP / ALT / AST / BUN / CRE / Ca / Cl / DBIL / GLC / IP / K / LDH / Na / PL / RALB / TBIL / TC / TG / TP / gamma-GTP: tissue Plasma

Molecule `CC(C)NNC(=O)c1ccncc1` [IPRONIAZID] has a TERMINAL_BW (3 h) of 208.3 g, an APTT (3 h) of 21.1 s and a Bas (3 h) of 0%. The Eos (3 h) was 0.6%, the Fbg (3 h) was 318.8 mg/dL and the Hb (3 h) was 13.3 g/dL. The Ht (3 h) was 38.7%, the Lym (3 h) was 82.2% and the MCH (3 h) was 21.3 pg. It also gave an MCHC (3 h) of 34.3%, an MCV (3 h) of 62.1 fL and a Mono (3 h) of 1.6%. It also gave a Neu (3 h) of 15%, a PT (3 h) of 16.4 s and a Plat (3 h) of 108.8 x10_4/uL. It also gave an RBC (3 h) of 624.6 x10_4/ul, a Ret (3 h) of 7.2% and a WBC (3 h) of 72.6 x10_2/uL. It also gave a KIDNEY_L (3 h) of 0.9 g, a KIDNEY_R (3 h) of 0.9 g and a KIDNEY_TOTAL (3 h) of 1.9 g. For the same molecule, the LIVER (3 h) was 9.7 g, the A/G (3 h) was 1.3 and the ALP (3 h) was 1798.2 IU/L. For the same molecule, the ALT (3 h) was 41.4 IU/L, the AST (3 h) was 78.6 IU/L and the BUN (3 h) was 13.6 mg/dL. For the same molecule, the CRE (3 h) was 0.2 mg/dL, the Ca (3 h) was 10.8 mg/dL and the Cl (3 h) was 107.6 meq/L. For the same molecule, the DBIL (3 h) was 0.004 mg/dL, the GLC (3 h) was 190.2 mg/dL and the IP (3 h) was 8 mg/dL. It also gave a K (3 h) of 4.1 meq/L, an LDH (3 h) of 225 IU/L and a Na (3 h) of 142.4 meq/L. For the same molecule, the PL (3 h) was 136.4 mg/dL, the RALB (3 h) was 3.1 g/dL and the TBIL (3 h) was 0.022 mg/dL. The TC (3 h) was 75.4 mg/dL, the TG (3 h) was 53.2 mg/dL and the TP (3 h) was 5.5 g/dL. It also gave a gamma-GTP (3 h) of 1.2 IU/L, a TERMINAL_BW (6 h) of 208.9 g and an APTT (6 h) of 23.2 s. For the same molecule, the Bas (6 h) was 0%, the Eos (6 h) was 0.8% and the Fbg (6 h) was 305.8 mg/dL. The Hb (6 h) was 13.3 g/dL, the Ht (6 h) was 38.6% and the Lym (6 h) was 79.4%. For the same molecule, the MCH (6 h) was 21.5 pg, the MCHC (6 h) was 34.3% and the MCV (6 h) was 62.5 fL. The Mono (6 h) was 2.4%, the Neu (6 h) was 16.6% and the PT (6 h) was 15.6 s. The Plat (6 h) was 115.7 x10_4/uL, the RBC (6 h) was 618.8 x10_4/ul and the Ret (6 h) was 8.7%. The WBC (6 h) was 96.2 x10_2/uL, the KIDNEY_L (6 h) was 0.9 g and the KIDNEY_R (6 h) was 1 g. The KIDNEY_TOTAL (6 h) was 1.9 g, the LIVER (6 h) was 9 g and the A/G (6 h) was 1.3. The ALP (6 h) was 1530.2 IU/L, the ALT (6 h) was 38.6 IU/L and the AST (6 h) was 71.6 IU/L. For the same molecule, the BUN (6 h) was 11.2 mg/dL, the CRE (6 h) was 0.2 mg/dL and the Ca (6 h) was 10.6 mg/dL. It also gave a Cl (6 h) of 105.8 meq/L, a DBIL (6 h) of 0.006 mg/dL and a GLC (6 h) of 180 mg/dL. The IP (6 h) was 9.3 mg/dL, the K (6 h) was 4.3 meq/L and the LDH (6 h) was 179.8 IU/L. For the same molecule, the Na (6 h) was 141.4 meq/L, the PL (6 h) was 140.6 mg/dL and the RALB (6 h) was 3 g/dL. For the same molecule, the TBIL (6 h) was 0.02 mg/dL, the TC (6 h) was 75.6 mg/dL and the TG (6 h) was 62.6 mg/dL. It also gave a TP (6 h) of 5.3 g/dL, a gamma-GTP (6 h) of 1 IU/L and a TERMINAL_BW (9 h) of 200.8 g. For the same molecule, the APTT (9 h) was 22.6 s, the Bas (9 h) was 0% and the Eos (9 h) was 1%. It also gave a Fbg (9 h) of 314.5 mg/dL, a Hb (9 h) of 12.9 g/dL and a Ht (9 h) of 37.8%. The Lym (9 h) was 75.5%, the MCH (9 h) was 21.4 pg and the MCHC (9 h) was 34.3%. It also gave an MCV (9 h) of 62.6 fL, a Mono (9 h) of 2% and a Neu (9 h) of 20.5%. It also gave a PT (9 h) of 15.7 s, a Plat (9 h) of 110.7 x10_4/uL and an RBC (9 h) of 605.5 x10_4/ul. The Ret (9 h) was 8.4%, the WBC (9 h) was 86.5 x10_2/uL and the KIDNEY_L (9 h) was 0.9 g. The KIDNEY_R (9 h) was 0.9 g, the KIDNEY_TOTAL (9 h) was 1.9 g and the LIVER (9 h) was 8.5 g. It also gave an A/G (9 h) of 1.2, an ALP (9 h) of 1450.5 IU/L and an ALT (9 h) of 41.2 IU/L. The AST (9 h) was 76.5 IU/L, the BUN (9 h) was 10.5 mg/dL and the CRE (9 h) was 0.2 mg/dL. It also gave a Ca (9 h) of 10.3 mg/dL, a Cl (9 h) of 107 meq/L and a DBIL (9 h) of 0.005 mg/dL. For the same molecule, the GLC (9 h) was 178.2 mg/dL, the IP (9 h) was 9.8 mg/dL and the K (9 h) was 4 meq/L. It also gave an LDH (9 h) of 172.2 IU/L, a Na (9 h) of 141.8 meq/L and a PL (9 h) of 135 mg/dL. The RALB (9 h) was 3 g/dL, the TBIL (9 h) was 0.0175 mg/dL and the TC (9 h) was 81.8 mg/dL. For the same molecule, the TG (9 h) was 39.8 mg/dL, the TP (9 h) was 5.5 g/dL and the gamma-GTP (9 h) was 1.2 IU/L. For the same molecule, the TERMINAL_BW (24 h) was 216 g, the APTT (24 h) was 21.7 s and the Bas (24 h) was 0%. It also gave an Eos (24 h) of 1%, a Fbg (24 h) of 333.2 mg/dL and a Hb (24 h) of 13.5 g/dL. The Ht (24 h) was 39.1%, the Lym (24 h) was 77.8% and the MCH (24 h) was 21.4 pg. For the same molecule, the MCHC (24 h) was 34.4%, the MCV (24 h) was 62.3 fL and the Mono (24 h) was 3%. For the same molecule, the Neu (24 h) was 17.6%, the PT (24 h) was 16.7 s and the Plat (24 h) was 124 x10_4/uL. For the same molecule, the RBC (24 h) was 627 x10_4/ul, the Ret (24 h) was 7.8% and the WBC (24 h) was 113.7 x10_2/uL. For the same molecule, the KIDNEY_L (24 h) was 1 g, the KIDNEY_R (24 h) was 1 g and the KIDNEY_TOTAL (24 h) was 1.9 g. For the same molecule, the LIVER (24 h) was 10.3 g, the A/G (24 h) was 1.2 and the ALP (24 h) was 1519.2 IU/L. For the same molecule, the ALT (24 h) was 39.8 IU/L, the AST (24 h) was 76.8 IU/L and the BUN (24 h) was 17.2 mg/dL. For the same molecule, the CRE (24 h) was 0.2 mg/dL, the Ca (24 h) was 10.9 mg/dL and the Cl (24 h) was 107.6 meq/L. The DBIL (24 h) was 0.002 mg/dL, the GLC (24 h) was 179.6 mg/dL and the IP (24 h) was 7.6 mg/dL. For the same molecule, the K (24 h) was 4.4 meq/L, the LDH (24 h) was 287.6 IU/L and the Na (24 h) was 142.6 meq/L. The PL (24 h) was 152.8 mg/dL, the RALB (24 h) was 3.1 g/dL and the TBIL (24 h) was 0 mg/dL. It also gave a TC (24 h) of 82.2 mg/dL, a TG (24 h) of 84.4 mg/dL and a TP (24 h) of 5.6 g/dL. The gamma-GTP (24 h) was 1.8 IU/L.
